# Where “and” joins values, the source holds several entries; their conditions need not be identical. Equal entries are not always repeated.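 1) Cells in 96-well plates. 2) Compound, 48 h, 5 concentrations. 3) Linear interpolation between surrounding doses. 4) Unreached endpoint = highest concentration. Here, GI50 denotes the concentration required for 50% inhibition of growth. TGI: concentration producing complete growth inhibition.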 Starred links: 1 amine or outer side, 2 acyl side, 3 side chain; linkers in the order of their positions; H or OH if unused. Positions of bridges follow the written chain, without caps; N, C: chain ends. Non-standard residues stand in square brackets, D forms with d. Residues, ends and D or L forms follow the SMILES beside them. Chains are numbered I, II in the order given. Actinocin(9to1) = Cc1c2oc3c(C)ccc(C(=O)[*:1])c3nc-2c(C(=O)[*:2])c(N)c1=O; NMeY = CN[CH](Cc1ccc(O)cc1)C(=O)O; Sar = CNCC(=O)O
# What was measured:
# Assay in all cases: DTP human tumour cell line panel, 48 h
# SNB-75 CNS = system: SNB-75 CNS
# CCRF-CEM leukemia = system: CCRF-CEM leukemia
# MCF7 breast = system: MCF7 breast
# RPMI-8226 leukemia = system: RPMI-8226 leukemia
# MDA-MB-231 breast = system: MDA-MB-231 breast
# OVCAR-5 ovarian = system: OVCAR-5 ovarian
# SK-MEL-5 melanoma = system: SK-MEL-5 melanoma
# UACC-257 melanoma = system: UACC-257 melanoma
# BT-549 breast = system: BT-549 breast
# IGROV1 ovarian = system: IGROV1 ovarian
Compound,TGI (SNB-75 CNS),TGI (CCRF-CEM leukemia),TGI (MCF7 breast),TGI (RPMI-8226 leukemia),TGI (MDA-MB-231 breast),TGI (OVCAR-5 ovarian),TGI (SK-MEL-5 melanoma),TGI (UACC-257 melanoma),TGI (BT-549 breast),TGI (IGROV1 ovarian),GI50 (SNB-75 CNS),GI50 (CCRF-CEM leukemia),GI50 (MCF7 breast),GI50 (MDA-MB-231 breast),GI50 (OVCAR-5 ovarian),GI50 (SK-MEL-5 melanoma),GI50 (UACC-257 melanoma)
CC1=NN(c2nc(N)nc(/C(C#N)=C\c3ccc([N+](=O)[O-])s3)n2)C(C)(C)C1,1.93 µM,0.0942 µM,0.375 µM,0.0872 µM,0.465 µM,21.5 µM,1.84 µM,0.544 µM,2.44 µM,0.287 µM,,,,,,,
O=C1Sc2cc3ccccc3cc2C(=O)Sc2ccc(Br)cc21,13.3 µM,> 19.7 µM,37.9 µM,> 100 µM,12.2 µM,25.5 µM,27.5 µM,17.6 µM,12.1 µM,16.8 µM,,,,,,,
O=C1Nc2cccc(Cl)c2/C1=C\c1c(Cl)nc2n1CCS2,> 100 µM,> 100 µM,> 100 µM,> 100 µM,> 100 µM,> 100 µM,> 100 µM,> 100 µM,> 100 µM,> 100 µM,,,,,,,
COC(=O)/C=C(\C(=O)OC)C1C(=O)Oc2c(C)c(=O)c3ccccc3n21 (stereo not given),> 100 µM,> 100 µM,> 100 µM,> 100 µM,> 100 µM,,> 100 µM,> 100 µM,> 100 µM,> 100 µM,,,,,,,
COc1cc(C2c3cc4c(cc3OC(N3CCCCC3)C2C)OCO4)cc(OC)c1O (stereo not given),13.7 µM,25.1 µM,> 43 µM,> 76.3 µM,28.1 µM,41.3 µM,19.8 µM,41.9 µM,90.5 µM,36.4 µM,,,,,,,
N#CC1C(=S)NC(c2ccccc2)=CC12CCCCC2 (stereo not given),> 100 µM,56.4 µM,42.4 µM,54.3 µM,> 100 µM,> 100 µM,90.4 µM,> 100 µM,35.7 µM,70.2 µM,,,,,,,
C=CCn1c(N)c(C#N)c(C#N)c1-c1ccccc1,> 100 µM,> 100 µM,> 100 µM,> 100 µM,> 100 µM,> 100 µM,> 100 µM,> 100 µM,> 100 µM,> 100 µM,,,,,,,
CC(=O)N=C1N(/C=C2\C(=O)Oc3ccccc3C2=O)C(=O)/C(=C/c2cccc(Cl)c2Cl)N1C,57.8 µM,> 100 µM,> 100 µM,52.5 µM,86.4 µM,> 100 µM,32.2 µM,> 100 µM,75.3 µM,> 100 µM,,,,,,,
Cc1n(Cc2ccccc2)c2c([n+]1C)C(=O)c1ccccc1C2=O,0.219 µM,> 100 µM,0.079 µM,39.1 µM,0.299 µM,0.503 µM,0.0509 µM,0.14 µM,0.234 µM,0.127 µM,,,,,,,
Nc1ccc2c(c1)C(=O)N1CCC[C@H]1C(=O)N2,> 100 µM,20.5 µM,> 100 µM,> 100 µM,> 100 µM,> 100 µM,> 100 µM,> 100 µM,> 100 µM,> 100 µM,,,,,,,
COc1cc(OC)c2nc(C)c(CCCl)c(Cl)c2c1,> 100 µM,> 100 µM,> 100 µM,> 100 µM,> 100 µM,> 100 µM,,> 100 µM,> 100 µM,> 100 µM,,,,,,,
COc1cccc(C2c3cc4c(cc3OC(N3CCCCC3)C2C)OCO4)c1O (stereo not given),68.5 µM,13.9 µM,57.7 µM,12.3 µM,> 56.7 µM,57.7 µM,16.3 µM,> 56.6 µM,54.9 µM,> 100 µM,,,,,,,
"Cc1c2oc3c(C)ccc(C(=O)NC4C(=O)NC(C(C)C)C(=O)N5CCCC5C(=O)N(C)CC(=O)N(C)C(Cc5ccc(O)cc5)C(=O)OC4C)c3nc-2c(C(=O)NC2C(=O)NC(C(C)C)C(=O)N3CCCC3C(=O)N(C)CC(=O)N(C)C(Cc3ccc(O)cc3)C(=O)OC2C)c(N)c1=O (stereo not given) (I: TVP[Sar][NMeY] / II: TVP[Sar][NMeY]; ester I:1-I:C, II:1-II:C; linker I:N-II:N via Actinocin(9to1); configuration not given here)",0.278 µM and 0.228 µM,,> 1 µM,0.926 µM and > 1 µM,> 1 µM,0.997 µM and > 0.443 µM,0.221 µM and 0.0252 µM,0.54 µM and 0.446 µM,0.213 µM and 0.0733 µM,> 1 µM,0.0174 µM and 0.00316 µM,0.00256 µM and 0.00073 µM,0.00329 µM,0.136 µM and 0.0318 µM,0.199 µM and 0.0508 µM,0.0227 µM and 0.00612 µM,0.0936 µM and 0.0111 µM
N#C[C@H](c1ccccn1)c1nc2ccccc2nc1Cl,> 100 µM,> 100 µM,> 100 µM,> 100 µM,> 100 µM,> 100 µM,> 100 µM,> 100 µM,> 100 µM,> 100 µM,,,,,,,
Cc1ccc(C2SCC(=O)N2c2ccc(-n3c(-c4ccccc4)nc4ccccc4c3=O)cc2)cc1 (stereo not given),90.5 µM,> 100 µM,> 100 µM,55.1 µM,39.6 µM,> 100 µM,31.9 µM,69.8 µM,54.7 µM,90.7 µM,,,,,,,
C=CCc1cccc2cc(C(=O)NCc3ccccc3)c(=N)oc12,> 100 µM,> 100 µM,> 100 µM,> 100 µM,> 100 µM,> 100 µM,64.4 µM,> 100 µM,> 100 µM,> 100 µM,,,,,,,
Cc1ccnc2[nH]c(-c3ccc4ccccc4c3)cc(=O)c12,4.6 µM,8.43 µM,3.91 µM,8.05 µM,8.58 µM,23.5 µM,12.7 µM,32.8 µM,31.8 µM,11.1 µM,,,,,,0.437 µM,
BrC1=C(Br)C2(SCCS2)[C@H]2C[C@@H]1c1ccccc12,> 85.9 µM,> 100 µM,> 100 µM,> 100 µM,> 100 µM,> 100 µM,> 41.6 µM,> 100 µM,> 100 µM,> 100 µM,,,,,,,
Cc1ccc(S(=O)(=O)c2[nH]cc(/C(=C\C3CCCCC3)[N+](=O)[O-])c2C2CCCCC2)cc1,5.81 µM,0.991 µM,> 100 µM,0.715 µM,0.515 µM,3.71 µM,1.21 µM,1.2 µM,0.813 µM,1.13 µM,,,,,,,
CN1C(=O)c2ccccc2OC12C=Cc1c(ccc3ccccc13)O2 (stereo not given),33.1 µM,> 29.6 µM,> 44.6 µM,> 71.9 µM,44.6 µM,27.4 µM,23 µM,36.3 µM,> 56.6 µM,30.8 µM,,,,,,,
